Assay results as given in patent US7282507B2, “Indole derivatives as selective androgen receptor modulators (SARMS)” (Janssen Pharmaceutica N.V., priority 2004, dated 2007).
Where “and” joins values, the source holds several entries; their conditions need not be identical. Equal entries are not always repeated.

Columns and labels:
[1] = molecular target: T1, androgen receptor LBD (Panvera) (Rattus norvegicus, UniProt P15207); assay: Androgen Receptor Filtration Binding Assay (PANVERA); details: [3H] R1881 tracer 0.5 nM; read-out: IC50 (nM), Androgen Receptor Binding (Panvera)
T1 construct: 5 pmol androgen receptor LBD (Panvera); purchased Panvera
T1 sequence (P15207 651-882 limits assumed): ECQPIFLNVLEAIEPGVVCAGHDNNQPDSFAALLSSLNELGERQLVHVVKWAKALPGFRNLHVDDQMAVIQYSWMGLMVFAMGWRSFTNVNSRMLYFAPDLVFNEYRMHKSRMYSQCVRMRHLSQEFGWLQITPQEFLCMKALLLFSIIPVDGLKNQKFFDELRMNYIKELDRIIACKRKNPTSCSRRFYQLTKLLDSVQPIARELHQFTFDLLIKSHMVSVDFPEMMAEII
Description: (§1) The assay was run on a 96 well plate with each well filled with a total reaction volume 150 μL, of a solution containing 5 pmol androgen receptor LBD (Panvera) or 30 μL of freshly prepared rat cytosol, 0.5 nM [^3H] […] (TED buffer contains 10 mM Tris.HCl pH 7.4, 1 mM sodium molybdate, 1.5 mM EDTA, 1 mM DTT and 10% (v/v) glycerol.)
(§2) On day one, the solution containing receptor, tracer and TED buffer was distributed into a 96 well plate. Diluted test compound or control vehicle was then added to individual wells and the plate incubated at 4° C. overnight.
(§3) On day two, to each well was then added 20 μL human γ-globulin (ICN 823102), prepared at 25 mg/ml in TE pH 8.0, and 55 μL 40% polyethylene glycol 8000 (J T Baker U222-08), prepared in TE pH 8.0. The plate was incubated at 4° C. for 60 minutes. During incubation, the harvester was rinsed with 10% PEG 8000, prepared in TE pH 8.0, and a GF/C Unifilter-96 was pre-wet with 10% PEG. The binding reaction was filtered, the retentate was washed three times with 10% PEG and dried under vacuum for a couple of minutes, then dried at 50° C. for 5 min and the plate was bottom sealed. Next, 25 μL of Microscint-20 (Packard) was added to the filter wells and the plate was top sealed. The plate wells were then counted on a TopCount (Packard).
Counts per well were measured and IC50s determined by linear regression.

[2] = system: testosterone-enhanced ventral prostate and seminal vesicle weights; assay: Ventral Prostate and Seminal Vesicle Weight in vivo Assay; set-up: species or system rat; details: immature castrated male Sprague Dawley rats, once daily for five days, usually orally 40 mg/kg, with testosterone propionate 2 mg/kg s.c. Note: key: 'active' if the non weight adjusted prostate weight was ≦40 mg or the % Inhibition prostate weight, body weight adjusted was ≧40% @ 2 mg/day dosage; ID50's, if determined, of ≦15 mg/day also indicated an 'active' compound; listed herein as 'inactive' as they did not meet the specified criteria defined above.
Outline: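 Immature castrated male Sprague Dawley rats (~50 g) were dosed once daily for five days with compound, usually orally at 40 mg/kg in cyclodextrin or methylcellulose vehicle. Testosterone propionate was co-dosed subcutaneously at 2 mg/kg. On day six, ventral prostate and seminal vesicle wet weights were measured; activity was judged on prostate weight or body-weight-adjusted % inhibition.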

[3] = molecular target: T2, androgen receptor (rat ventral prostate cytosol) (Rattus norvegicus, UniProt P15207); assay: Androgen Receptor Binding Using Rat Ventral Prostate Cytosol; details: Concentration 3000 nM
T2 construct: from tissue; host or cells: ventral prostate cytosol of castrated male Sprague Dawley or Wistar rats
T2 sequence (P15207 1-902): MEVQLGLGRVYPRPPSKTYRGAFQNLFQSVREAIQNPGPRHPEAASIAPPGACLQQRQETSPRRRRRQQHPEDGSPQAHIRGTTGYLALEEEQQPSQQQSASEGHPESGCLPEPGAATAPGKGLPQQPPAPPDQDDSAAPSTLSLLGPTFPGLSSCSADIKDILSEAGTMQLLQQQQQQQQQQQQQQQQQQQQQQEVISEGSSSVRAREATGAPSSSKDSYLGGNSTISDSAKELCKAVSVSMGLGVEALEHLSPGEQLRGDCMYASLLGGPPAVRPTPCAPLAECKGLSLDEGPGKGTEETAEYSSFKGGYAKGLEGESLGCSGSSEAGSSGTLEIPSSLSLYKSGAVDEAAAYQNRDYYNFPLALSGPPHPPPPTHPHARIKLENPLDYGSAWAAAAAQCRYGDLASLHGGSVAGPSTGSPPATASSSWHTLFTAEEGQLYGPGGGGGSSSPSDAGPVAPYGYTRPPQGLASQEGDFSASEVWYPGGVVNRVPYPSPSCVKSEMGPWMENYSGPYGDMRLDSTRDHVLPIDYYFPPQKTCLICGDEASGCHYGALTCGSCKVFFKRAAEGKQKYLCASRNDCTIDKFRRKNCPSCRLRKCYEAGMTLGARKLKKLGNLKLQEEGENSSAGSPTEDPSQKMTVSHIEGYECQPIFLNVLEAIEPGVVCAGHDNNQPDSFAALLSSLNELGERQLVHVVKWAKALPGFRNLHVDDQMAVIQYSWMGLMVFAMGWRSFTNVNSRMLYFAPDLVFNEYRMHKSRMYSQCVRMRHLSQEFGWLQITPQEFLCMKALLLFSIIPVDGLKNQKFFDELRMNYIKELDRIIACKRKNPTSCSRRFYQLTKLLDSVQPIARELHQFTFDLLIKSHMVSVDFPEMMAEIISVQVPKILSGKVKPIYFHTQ
Description: as §1, §2, §3
Rat Prostate Cytosol Preparation:
Male Sprague Dawley or Wistar rats (Charles River, 200-300 g) were used for each preparation. The day before preparing the cytosol, the rats were castrated using standard surgical procedures.
The rats were euthanized by carbon dioxide asphyxiation. The rat prostates were quickly removed and placed on ice in pre-chilled, pre-weighed 50 mL plastic tubes. No more than five prostates were placed into one tube. The tubes were then weighed and the prostate tissue wet weights calculated.
To the chilled prostate tissue was then added […] of chilled homogenization buffer. The homogenization buffer was freshly prepared by mixing 10 mM Tris.HCl, pH 7.4, 1 mM sodium molybdate, 1.5 mM EDTA, 1 mM dithiothreitol, 10% (v/v) glycerol and 1% protease inhibitor cocktail (Sigma P 8340).
The prostate tissue was homogenized in a cold room using a pre-chilled Polytron PT3000 homogenizer (Brinkmann). Homogenization was performed at a speed setting of 20, three times for 10 sec bursts. The tubes containing the prostate tissue was kept on ice while homogenizing. The homogenate was allowed to rest on ice for 20 sec between bursts.
The homogenate was then placed into pre-chilled 3 mL polycarbonate ultracentrifuge tubes and centrifuged in the TLA-100 rotor of a TL-100 ultracentrifuge for 12 min at 100,000 rpm at 4° C. The resulting supernatant was stored in 1 mL aliquots at −80° C. until needed.
Binding to the androgen receptor was determined according to the protocol described in Example 86 using the above prepared rat cytosol.
% Inhibition was determined by testing dilutions of the test compound (usually duplicates of 10 μM) in the binding assay. Counts per well were measured and percents of inhibition determined. […] Counts per well were measured and IC50s determined by linear regression.

[4] = molecular target: T3, androgen receptor (AdEasy+rAR, COS-7 cells) (Rattus norvegicus, UniProt P15207); assay: COS-7 Whole-Cell Androgen Receptor Binding Assay, Adenovirus Transduction; details: for inhibition at 3 µM / % Inhibition, COS Binding: concentration of 3000 nM; for IC50: read-out: IC50 (nM), COS Binding; for % Inhibition, COS Binding: 3 µM
T3 construct: expressed in transfected cells; host or cells: COS-7 cells transduced with adenovirus AdEasy+rAR
T3 sequence (P15207 1-902): T2 sequence (P15207 1-902)
Outline: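 COS-7 cells in phenol red-free DMEM/F12 with 10% charcoal-treated FBS were transduced with AdEasy+rAR adenovirus (moi 1:50 per well), exposed to test compound in duplicate and incubated for 48 h at 37° C. Cells were then lysed in 0.5% Triton X-100 and bound radioactivity counted by scintillation.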

[5] = molecular target: T4, androgen receptor (AdEasy+rAR, L929 cells) (Rattus norvegicus, UniProt P15207); assay: L929 Androgen Receptor Functional Assay, Adenovirus Transduction; format: cell-based; details: for inhibition at 3 µM: L929, antagonist testing with R1881, 3000 nM; for EC50 / % Activity, L929 androgen receptor functional assay: agonist testing; for IC50: antagonist testing with R1881; for % Inhibition, L929 androgen receptor functional assay: antagonist testing with R1881, 3000 nM
T4 construct: expressed in transfected cells; host or cells: L929 cells transduced with adenovirus AdEasy+rAR
T4 sequence (P15207 1-902): T2 sequence (P15207 1-902)
Outline: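 L929 cells in phenol red-free, charcoal-stripped serum medium transduced with AdEasy+rAR (moi 1:500) and exposed 48 h at 37 °C to compound alone (agonist mode) or with R1881 (antagonist mode; 2.5 nM as the 2.5× dilution).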

| Structure (SMILES) | IC50 [1] [nM] | active / inactive: inhibition of testosterone-enhanced prostate weight [2] | IC50 [4] | IC50 [5] | % Inhibition, COS Binding [4] | also measured |
| --- | --- | --- | --- | --- | --- | --- |
| CC(O)(SC1CCCCC1)c1cc2cc([N+](=O)[O-])c(C(F)(F)F)cc2[nH]1 (racemic) [Compound 256] | 2650 | – | – | – | – | – |
| CC(O)(CSc1ccc(Cl)cc1)c1cc2ccccc2[nH]1 (stereo not shown) [Compound 89] | > 9600 | – | – | – | – | – |
| CC(O)(SC1CCCCC1)c1cc2cc(C#N)c(C(F)(F)F)cc2[nH]1 (racemic) [Compound 257] | 5150 | – | – | – | – | – |
| CC(O)(C[S+]([O-])c1ccc(F)cc1)c1cc2cc(Cl)c(C(F)(F)F)cc2[nH]1 (stereo not shown) [Compound 113] | 5100 | inactive | – | – | – | – |
| CC(O)(Sc1ccc(Cl)cc1)c1cc2cc([N+](=O)[O-])c(C(F)(F)F)cc2[nH]1 (racemic) [Compound 259] | 915 | – | – | – | – | – |
| CCSCC(C)(O)c1cc2cc(Cl)c(C(F)(F)F)cc2[nH]1 (stereo not shown) [Compound 152] | – | inactive | 108 nM | – | – | inhibition at 3 µM [3]: 97%; inhibition at 3 µM [4]: 39% |
| CCSCC(C)(O)c1cc2cc(C#N)c(C(F)(F)F)cc2[nH]1 (single isomer, unassigned) [Compound 217, 2-(2-Ethylsulfanyl-1-hydroxy-1-methyl-ethyl)-6-trifluoromethyl-1H-indole-5-carbonitrile] | – | active | – | 969 nM and 415 nM and 810 nM | 38% and 61% and 69% | inhibition at 3 µM [5]: 87%; EC50 [5]: > 8000 nM; % Activity, L929 androgen receptor functional assay ([5]; 3000 nM): 5%; % Activity, L929 androgen receptor functional assay ([5]; @ 8000 nM): 0 @ 8000 nM %; % Inhibition, L929 androgen receptor functional assay ([5]; 3 µM): 80% |
| CCSCC(C)(O)c1[nH]c2cc(C(F)(F)F)c(C#N)cc2c1C (single isomer, unassigned) [Compound 234, 2-(2-Ethylsulfanyl-1-hydroxy-1-methyl-ethyl)-3-methyl-6-trifluoromethyl-1H-indole-5-carbonitrile] | – | inactive | 539 nM | 215 nM | 71% | % Activity, L929 androgen receptor functional assay ([5]; 3000 nM, 3 µM): −1%; % Inhibition, L929 androgen receptor functional assay ([5]; 3 µM): 99% |
| CCSCC(C)(O)c1[nH]c2cc(C(F)(F)F)c(C#N)cc2c1C (single isomer, unassigned) [Compound 233, 2-(2-Ethylsulfanyl-1-hydroxy-1-methyl-ethyl)-3-methyl-6-trifluoromethyl-1H-indole-5-carbonitrile] | – | active | 45.6 nM | 69.2 nM | 95% and 81% | inhibition at 3 µM [5]: 97%; % Activity, L929 androgen receptor functional assay ([5]; 3000 nM, 3 µM): 0% |
| CCS(=O)(=O)CC(C)(O)c1cc2cc(C#N)c(C(F)(F)F)cc2[nH]1 (single isomer, unassigned) [Compound 222, 2-(2-Ethanesulfonyl-1-hydroxy-1-methyl-ethyl)-6-trifluoromethyl-1H-indole-5-carbonitrile] | – | active | 1580 nM | 2410 nM | – | inhibition at 3 µM [5]: 61%; EC50 [5]: > 8000 nM; % Activity, L929 androgen receptor functional assay ([5]; @ 8000 nM): 0 @ 8000 nM %; inhibition at 3 µM [4]: 42% |
| CCC(O)(CS(=O)(=O)CC(F)(F)F)c1[nH]c2cc(C(F)(F)F)c([N+](=O)[O-])cc2c1Cl (stereo not shown) [Compound 199] | – | inactive | 310 nM | – | – | inhibition at 3 µM [5]: 59%; % Activity, L929 androgen receptor functional assay ([5]; 3000 nM): 2%; inhibition at 3 µM [4]: 82% |
| CCSCC(C)(O)c1cc2cc(F)c(C(F)(F)F)cc2[nH]1 (racemic) [Compound 206] | – | active | – | – | −40% | % Activity, L929 androgen receptor functional assay ([5]; 3000 nM, 3 µM): 5% |
| CCSCC(C)(O)c1cc2cc([N+](=O)[O-])c(C(F)(F)F)cc2n1C (single isomer, unassigned) [Compound 231] | – | active | 665 nM and > 3000 nM | 3180 nM | 78% | % Activity, L929 androgen receptor functional assay ([5]; 3000 nM, 3 µM): 0% and −1%; inhibition at 3 µM [4]: 73% |
| CC(O)(CSc1ccc([N+](=O)[O-])cc1)c1cc2cc([N+](=O)[O-])c(C(F)(F)F)cc2[nH]1 (stereo not shown) [Compound 103] | 1650 | – | – | – | – | – |
